Earlier results as cited in patent US6964965B2, “Substituted pyrazine derivatives” (Pharmacia & Upjohn, priority 2002, dated 2005).

Tests used:
[1] = system: human epidermal keratinocyte cells; settings: cultured human epidermal keratinocyte cells
CRF = settings: for effect on the “anxiogenic” effects / actions of CRF in the conflict test: conflict test (operant conflict test)

Row | Structure (SMILES) | keratinocyte cell proliferation promoting effect [1] | effect on the “anxiogenic” effects / actions of CRF in the conflict test (CRF) | behavioral activity of the substance alone in the operant conflict test (CRF; alone, without CRF)
1 | CCN(c1nc(C)cc(N2CC=C(c3cccc(F)c3)CC2)n1)c1ccc(C(C)C)cc1SC [2-[N-(2-methylthio-4-isopropylphenyl)-N-ethylamino]-4-[4-(3-fluorophenyl)-1,2,3,6-tetrahydropyridine-1-yl]-6-methylpyrimidine] | showed keratinocyte cell proliferation promoting effect |  | 
2 | CNC(=O)c1cc2c(cn1)[nH]c1ccccc12 [FG 7142] |  | enhanced the actions of CRF | 
3 | CCOC(=O)c1ncn2c1CN(C)C(=O)c1cc(F)ccc1-2 [Ro 15-1788] |  | reversed the effects of CRF in a dose-dependent manner | without behavioral activity alone
